Experimental data: article PMC8308786, “Discovery and Characterization of a Novel MASTL Inhibitor MKI-2 Targeting MASTL-PP2A in Breast Cancer Cells and Oocytes” (Pharmaceuticals, 2021)
pIC50: −log10 of the molar value.

Target: T1, MASTL (Homo sapiens, UniProt Q96GX5)
T1 construct: recombinant GST-tagged-MASTL
T1 sequence (Q96GX5 1-879): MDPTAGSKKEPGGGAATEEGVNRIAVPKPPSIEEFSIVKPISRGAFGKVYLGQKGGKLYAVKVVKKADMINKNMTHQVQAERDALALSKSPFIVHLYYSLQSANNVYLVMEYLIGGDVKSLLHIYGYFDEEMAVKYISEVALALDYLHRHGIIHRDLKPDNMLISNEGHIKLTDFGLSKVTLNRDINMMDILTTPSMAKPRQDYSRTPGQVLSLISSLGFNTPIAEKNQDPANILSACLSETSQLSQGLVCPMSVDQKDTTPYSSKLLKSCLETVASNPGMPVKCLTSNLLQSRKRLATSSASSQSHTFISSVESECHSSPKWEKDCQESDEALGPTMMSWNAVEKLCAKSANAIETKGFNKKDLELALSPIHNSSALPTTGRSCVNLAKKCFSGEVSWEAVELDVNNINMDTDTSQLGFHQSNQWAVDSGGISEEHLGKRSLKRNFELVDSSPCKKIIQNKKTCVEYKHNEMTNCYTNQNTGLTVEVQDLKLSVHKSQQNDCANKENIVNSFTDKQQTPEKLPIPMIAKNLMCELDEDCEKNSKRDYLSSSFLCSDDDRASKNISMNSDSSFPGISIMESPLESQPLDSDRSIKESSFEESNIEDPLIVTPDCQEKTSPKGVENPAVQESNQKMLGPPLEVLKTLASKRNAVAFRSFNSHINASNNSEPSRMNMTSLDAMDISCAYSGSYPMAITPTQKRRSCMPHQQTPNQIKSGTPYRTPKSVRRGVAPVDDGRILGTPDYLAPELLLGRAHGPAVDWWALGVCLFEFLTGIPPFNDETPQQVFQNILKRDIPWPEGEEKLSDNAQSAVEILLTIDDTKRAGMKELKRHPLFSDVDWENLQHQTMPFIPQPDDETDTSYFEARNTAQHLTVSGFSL
Experiment: in vitro kinase assay with recombinant GST-MASTL and His-ENSA substrate; also HTRF KinEASE and ADP-Glo
Format: biochemical

N#CCc1ccc(Nc2nc(Nc3cc(C4CC4)[nH]n3)c3ccccc3n2)cc1 [#248, 2-(4-((4-((5-cyclopropyl-1H-pyrazol-3-yl)amino)quinazolin-2-yl)amino)phenyl)acetonitrile]
pIC50: 7.43
